{"source": "patent US20230146923A1", "about": "“COMPOSITIONS AND METHODS FOR INHIBITION AND TARGETING OF P97” (California Institute of Technology, priority 2021, published 2023)", "tested_on": "HCT116 cells", "assay": "TMT labeling proteomics of HCT116 cells treated with MG132, CB-5083 or NMS-873", "assay_type": "cell-based", "conditions": "for Log2 FC Baculoviral IAP repeat-containing protein 5 (BIRC5) / Log2 FC Cell division cycle protein 20 homolog (CDC20) / Log2 FC F-box only protein 5 (FBXO5) / Log2 FC G1/S-specific cyclin-D1 (CCND1) / Log2 FC Geminin (GMNN) / Log2 FC M-phase inducer phosphatase 2 (CDC25B) / Log2 FC Mitotic checkpoint serine/threonine-protein kinase BUB1 (BUB1) / Log2 FC Myc proto-oncogene protein (MYC) / Log2 FC Origin recognition complex subunit 6 (ORC6) / Log2 FC Ribonucleoside-diphosphate reductase subunit M2 (RRM2) / Log2 FC Securin (PTTG1): compound vs DMSO", "description": "HCT116 cells were treated with 1 μM MG132, 2 μM CB-5083 or 4 μM of NMS-874 for 6 h or 24 h, n=2. […] M, C and N represents MG132, CB-5083 and NMS-873, respectively.\nAs a step toward understanding the differential effects of inhibiting p97 and the proteasome in cancer treatment, the effect of inhibiting p97 was compared to proteasome inhibition using tandem mass tag (TMT) 16-plexed labelling. This technique allowed for capture of alterations in the proteome after exposure to MG132 (proteasome inhibitor) and p97 inhibitors (CB-5083 and NMS-873). […] Samples were pooled together, fractionated into 8 fractions using high pH reverse chromatography, and analyzed using the highly accurate RTS-SPS-MS3 method.", "note": "Where a SMILES comes first, the peptide text is derived from it. The star is where a group is joined. Cbz = O=C(OCc1ccccc1)*"}
{"smiles": "CC(C)C[C@@H](C=O)NC(=O)[C@H](CC(C)C)NC(=O)[C@H](CC(C)C)NC(=O)OCc1ccccc1", "note": "[MG132] (Cbz-Leu-Leu-Leu-aldehyde)", "values": [{"measurement": "TAX1BP1 and p62 protein levels", "setting": "HCT116, 6 h and 24 h", "result": "upregulated"}, {"measurement": "Log2 FC Baculoviral IAP repeat-containing protein 5 (BIRC5)", "setting": "HCT116, 6 h treatment", "result": 0.6}, {"measurement": "Log2 FC Cell division cycle protein 20 homolog (CDC20)", "setting": "HCT116, 6 h treatment", "result": 0.8}, {"measurement": "Log2 FC F-box only protein 5 (FBXO5)", "setting": "HCT116, 6 h treatment", "result": 0.2}, {"measurement": "Log2 FC G1/S-specific cyclin-D1 (CCND1)", "setting": "HCT116, 6 h treatment", "result": 0.2}, {"measurement": "Log2 FC Geminin (GMNN)", "setting": "HCT116, 6 h treatment", "result": 0.9}, {"measurement": "Log2 FC M-phase inducer phosphatase 2 (CDC25B)", "setting": "HCT116, 6 h treatment", "result": 0.3}, {"measurement": "Log2 FC Mitotic checkpoint serine/threonine-protein kinase BUB1 (BUB1)", "setting": "HCT116, 6 h treatment", "result": 1.2}, {"measurement": "Log2 FC Myc proto-oncogene protein (MYC)", "setting": "HCT116, 6 h treatment", "result": 1.2}, {"measurement": "Log2 FC Origin recognition complex subunit 6 (ORC6)", "setting": "HCT116, 6 h treatment", "result": 0.3}, {"measurement": "Log2 FC Ribonucleoside-diphosphate reductase subunit M2 (RRM2)", "setting": "HCT116, 6 h treatment", "result": 0.6}, {"measurement": "Log2 FC Securin (PTTG1)", "setting": "HCT116, 6 h treatment", "result": 1.4}, {"measurement": "Four XBP1 activated genes/proteins (DNAJB11, SRPR, SRPRB, SYVN1), Log2FC", "setting": "HCT116, 24 h of treatment, p<0.05", "result": "not"}, {"measurement": "Log2 FC Baculoviral IAP repeat-containing protein 5 (BIRC5)", "setting": "HCT116, 24 h treatment", "result": 1.0}, {"measurement": "Log2 FC Cell division cycle protein 20 homolog (CDC20)", "setting": "HCT116, 24 h treatment", "result": 1.1}, {"measurement": "Log2 FC F-box only protein 5 (FBXO5)", "setting": "HCT116, 24 h treatment", "result": 1.5}, {"measurement": "Log2 FC G1/S-specific cyclin-D1 (CCND1)", "setting": "HCT116, 24 h treatment", "result": 0.4}, {"measurement": "Log2 FC Geminin (GMNN)", "setting": "HCT116, 24 h treatment", "result": 1.4}, {"measurement": "Log2 FC M-phase inducer phosphatase 2 (CDC25B)", "setting": "HCT116, 24 h treatment", "result": "−0.2"}, {"measurement": "Log2 FC Mitotic checkpoint serine/threonine-protein kinase BUB1 (BUB1)", "setting": "HCT116, 24 h treatment", "result": 1.4}, {"measurement": "Log2 FC Myc proto-oncogene protein (MYC)", "setting": "HCT116, 24 h treatment", "result": 0.2}, {"measurement": "Log2 FC Origin recognition complex subunit 6 (ORC6)", "setting": "HCT116, 24 h treatment", "result": 1.0}, {"measurement": "Log2 FC Ribonucleoside-diphosphate reductase subunit M2 (RRM2)", "setting": "HCT116, 24 h treatment", "result": 1.2}, {"measurement": "Log2 FC Securin (PTTG1)", "setting": "HCT116, 24 h treatment", "result": "−0.1"}, {"measurement": "CCND1 (cyclin D1) and CDK4/6 protein levels", "setting": "HCT116, proteomic analysis (TMT)", "result": "upregulated"}]}
